From PMC2808025 (Current Chemical Genomics, 2009)
Values joined by “and” are separate entries in the source; they are usually repeats but may differ in a detail not shown here. Equal entries are not always repeated. Where two headings read alike, the source gives them in different places.

How the values were obtained:
PAP = settings: cited from earlier work
human PAP = target: T1, human PAP (Homo sapiens, UniProt P15309); assay type: biochemical
T1 sequence (P15309 33-386): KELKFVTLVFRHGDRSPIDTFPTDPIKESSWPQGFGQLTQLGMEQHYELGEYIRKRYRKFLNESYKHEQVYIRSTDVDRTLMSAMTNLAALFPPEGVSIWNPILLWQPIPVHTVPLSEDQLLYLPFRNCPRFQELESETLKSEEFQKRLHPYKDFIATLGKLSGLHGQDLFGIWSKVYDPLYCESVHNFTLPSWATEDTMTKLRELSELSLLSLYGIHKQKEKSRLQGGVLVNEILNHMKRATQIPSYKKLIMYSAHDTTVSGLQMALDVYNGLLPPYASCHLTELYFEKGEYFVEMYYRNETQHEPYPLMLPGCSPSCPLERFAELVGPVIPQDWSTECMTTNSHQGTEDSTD

SMILES: O=P(O)(O)C(NCc1ccccc1)c1ccccc1 (stereo not drawn) [BABPA, α-benzylaminobenzylphosphonic acid]
- IC50 (PAP; known PAP inhibitor): nanomolar range

SMILES: Cc1cc(=O)oc2c(F)c(OP(=O)(O)O)c(F)cc12 [DiFMUP, difluoro-4-methylumbelliferyl phosphate]
- Km (human PAP): 918 µM

SMILES: O=C([O-])[C@H](O)[C@@H](O)C(=O)[O-].[Na+].[Na+] [sodium L-(+)-tartrate]
- Hill slope (human PAP): 0.96 and 0.89
- IC50 (human PAP): 53 µM and 40 µM
- IC50 (PAP; read-out: published IC50): 29 µM
